{"source": "patent US8541379B2", "about": "(Ajinomoto Co., Inc., priority 2009, dated 2013)", "assay_type_in_all_cases": "in vivo, human", "key": {"[1]": {"experiment": "Quantitative sensory evaluation test of kokumi-imparting activity", "settings": "n=4", "protocol": "This quantitative sensory evaluation test was carried out according to the following procedures: The intensity of the kokumi-imparting activity observed for each test compound was determined as a value observed when blending 0.00001 to 0.5 g/dL of the corresponding test compound with the distilled water containing sodium glutamate (0.05 g/dL), inosinic acid monophosphate (0.05 g/dL), and sodium chloride (0.5 g/dL). […] The evaluation criteria are assumed to be as follows: control: 0 point; strong: 3 points; very strong: 5 points. Moreover, to clarify the criteria, the initial taste and the middle/after taste of γ-Glu-Val-Gly were set at 3.0 points, respectively. The scoring or rating was carried out using the method of line scale and more specifically, it was carried out by writing each corresponding score on a straight line on which points corresponding to −5˜0˜5 had been indicated. The panelists used in this test were defined to be persons who had been engaged in the development of seasonings for foods over not less than one year of the cumulative time period and who could judge that the difference in the titer between γ-Glu-Cys-Gly and γ-Glu-Val-Gly added to a solution having umami/salty taste is about 10 times (while confirming the ability of these persons at regular intervals). The evaluation was carried out at n (the number of panelists used)=4. The term “initial taste” means the taste which develops from 0 to 2 seconds after the sample is placed in the panelist's mouth, while the term “middle/after taste” means the taste which develops thereafter.\nIn addition, γ-Glu-Val-Gly, γ-Glu-Cys, γ-Glu-Val, γ-Glu-Ala and γ-Glu-Ser were likewise inspected for their kokumi-imparting effect according to the same procedures used above."}, "[2]": {"experiment": "Paired comparison sensory test, basil (Labiatae) herb/spice solution", "settings": "0.5% basil solution, N=9", "protocol": "More specifically, the sensory evaluation test was carried out according to the following procedures: Commercially available typical herb/spice in powdery form was dispersed in water in a concentration of 0.5% by mass to thus form a herb/spice solution. This solution was admixed with γ-Glu-Nva, γ-Glu-Cys-Gly, or γ-Glu-Abu as a test compound. According to the paired comparison test, the panelists were requested to comparatively evaluate the following three samples and to judge whether “any of them was preferred since it could enhance the flavor and taste of the herb/spice solution without changing the balance between them”: (1) 0.02% by mass of γ-Glu-Cys-Gly whose kokumi-imparting activity was identical to 0.00015% by mass of γ-Glu-Nva; (2) 0.00015% by mass of γ-Glu-Abu, the amount of which was identical to 0.00015% by mass of γ-Glu-Nva; (3) 0.003% by mass of γ-Glu-Abu whose kokumi-imparting activity was identical to that observed for 0.00015% by mass of γ-Glu-Nva. The panelists used in this test were persons who had been engaged in the development of seasonings for foods over not less than one year of the cumulative time period and who could judge that the difference in the titer between γ-Glu-Cys-Gly and γ-Glu-Val-Gly added to a solution having umami/salty taste is about 10 times (while confirming the ability of these persons at regular intervals). The evaluation was carried out at N (the number of panelists used)=9."}, "[3]": {"experiment": "Paired comparison sensory test, solution of miso", "settings": "10.0% miso solution, N=9", "protocol": "More specifically, the sensory evaluation test was carried out according to the following procedures: Commercially available miso (ingredients: soybeans and barley) for popular use was dispersed in hot water in a concentration of 10.0% by mass to thus form a solution of miso. This solution was admixed with γ-Glu-Nva, γ-Glu-Cys-Gly, or γ-Glu-Abu as a test compound. According to the paired comparison test method (pair test), the panelists were requested to comparatively evaluate the following three samples and to judge whether “any of them was preferred or favorable since it could enhance the flavor and taste of the solution of miso without changing the balance between them”: (1) 0.02% by mass of γ-Glu-Cys-Gly whose kokumi-imparting activity was identical to 0.0004% by mass of γ-Glu-Nva; (2) 0.0004% by mass of γ-Glu-Abu, the amount of which was identical to 0.0004% by mass of γ-Glu-Nva; (3) 0.003% by mass of γ-Glu-Abu whose kokumi-imparting activity was identical to that observed for 0.0004% by mass of γ-Glu-Nva. The panelists used in this test were persons who had been engaged in the development of seasonings for foods over not less than one year of the cumulative time period and who could judge that the difference in the titer between γ-Glu-Cys-Gly and γ-Glu-Val-Gly added to a solution having umami/salty taste is about 10 times (while confirming the ability of these persons at regular intervals). The evaluation was carried out at N (the number of panelists used)=9."}, "[4]": {"experiment": "Paired comparison sensory test, solution of tomato catsup", "settings": "33.3% tomato catsup solution, N=9, significant level of 1%", "protocol": "More specifically, the sensory evaluation test was carried out according to the following procedures: Commercially available tomato catsup for popular use was dispersed in hot water in a concentration of 33.3% by mass to thus form a solution of tomato catsup. This solution was admixed with γ-Glu-Nva, γ-Glu-Cys-Gly, or γ-Glu-Abu as a test compound. According to the paired comparison test method (pair test), the panelists were requested to comparatively evaluate the following three samples and to judge whether “any of them was preferred or favorable since it could enhance the flavor and taste of the solution of tomato catsup without changing the balance between them”: (1) 0.02% by mass of γ-Glu-Cys-Gly whose kokumi-imparting activity was identical to 0.0004% by mass of γ-Glu-Nva; (2) 0.0004% by mass of γ-Glu-Abu, the amount of which was identical to 0.0004% by mass of γ-Glu-Nva; (3) 0.003% by mass of γ-Glu-Abu whose kokumi-imparting activity was identical to that observed for 0.0004% by mass of γ-Glu-Nva. The panelists used in this test were persons who had been engaged in the development of seasonings for foods over not less than one year of the cumulative time period and who could judge that the difference in the titer between γ-Glu-Cys-Gly and γ-Glu-Val-Gly added to a solution having umami/salty taste was about 10 times (while confirming the ability of these persons at regular intervals). The evaluation was carried out at N (the number of panelists used)=9.\nHowever, the results observed for tomato catsup are shown in Table 6 as the typical example thereof."}}, "note": "Marks after values point to notes of the source that are not given here."}
{"smiles": "CCC[C@H](NC(=O)CC[C@H](N)C(=O)O)C(=O)O", "note": "[γ-Glu-Nva, γ-L-glutamyl-L-norvaline]", "values": [{"measurement": "Sensory Evaluation Profile", "setting": "[1]; 0.0001 g/dL in umami/salty solution", "value": "Mainly the initial and middle tastes"}, {"measurement": "Intensity of kokumi, Middle/After Taste", "setting": "[1]; 0.0001 g/dL in water with MSG 0.05, IMP 0.05, NaCl 0.5 g/dL", "value": 2.8, "unit": "points"}, {"measurement": "Intensity of kokumi, Initial Taste", "setting": "[1]; 0.0001 g/dL in water with MSG 0.05, IMP 0.05, NaCl 0.5 g/dL, scale control 0, strong 3, very strong 5", "value": 3.6, "unit": "points"}, {"measurement": "No. of Panelists who judged γ-Glu-Nva rather preferred", "setting": "[2]; 0.00015 wt % γ-Glu-Nva vs 0.00015 wt % γ-Glu-Abu, significant level of 1%", "value": "9/9**"}, {"measurement": "No. of Panelists who judged γ-Glu-Nva rather preferred", "setting": "[2]; 0.00015 wt % γ-Glu-Nva vs 0.003 wt % γ-Glu-Abu, significant level of 5%", "value": "8/9***"}, {"measurement": "No. of Panelists who judged γ-Glu-Nva rather preferred", "setting": "[2]; 0.00015 wt % γ-Glu-Nva vs 0.02 wt % γ-Glu-Cys-Gly, significant level of 1%", "value": "9/9**"}, {"measurement": "No. of Panelists who judged γ-Glu-Nva rather preferred", "setting": "[3]; 0.0004 wt % γ-Glu-Nva vs 0.0004 wt % γ-Glu-Abu, significant level of 1%", "value": "9/9***"}, {"measurement": "No. of Panelists who judged γ-Glu-Nva rather preferred", "setting": "[3]; 0.0004 wt % γ-Glu-Nva vs 0.003 wt % γ-Glu-Abu, significant level of 1%", "value": "9/9***"}, {"measurement": "No. of Panelists who judged γ-Glu-Nva rather preferred", "setting": "[3]; 0.0004 wt % γ-Glu-Nva vs 0.02 wt % γ-Glu-Cys-Gly, significant level of 5%", "value": "8/9**"}, {"measurement": "No. of Panelists who judged γ-Glu-Nva rather preferred", "setting": "[4]; 0.0004 wt % γ-Glu-Nva vs 0.0004 wt % γ-Glu-Abu", "value": "9/9**"}, {"measurement": "No. of Panelists who judged γ-Glu-Nva rather preferred", "setting": "[4]; 0.0004 wt % γ-Glu-Nva vs 0.003 wt % γ-Glu-Abu", "value": "9/9**"}, {"measurement": "No. of Panelists who judged γ-Glu-Nva rather preferred", "setting": "[4]; 0.0004 wt % γ-Glu-Nva vs 0.02 wt % γ-Glu-Cys-Gly", "value": "9/9**"}]}
